Reference: patent US7572778B2, “Fluorocombretastatin and derivatives thereof” (Sigma-Tau Industrie Farmaceutiche Riunite S.p.A., priority 2003, dated 2009)
Marks after values point to notes of the source that are not given here.

Tests used:
[1] = system: NCI-H460 human lung carcinoma; test: Tumor growth evaluation, NCI-H460 s.c. xenograft; type: in vivo, CD-1 nude mice
Description: NCI-H460 human lung carcinoma from in vitro cell cultures were injected s.c. (3×10^6 cells/100 μl/mouse) into the right flank of CD-1 nude mice. Four days after tumor implant mice started to be treated with ST2493 at the dose of 50 mg/kg intraperitoneally according to the following schedule: qdx5/w/3wks. CA-4P (combretastatin A-4 P) at the same dose was used as positive control.
All animals were weighed during the whole treatment period, in order to adjust the volume of drug administration and to record the percent of body weight loss due in the course of treatment.
In a following experiment with the same animal model ST2493 (prodrug of ST2303) was administered intravenously at the doses of 25 and 50 mg/kg according to a q2dx6 schedule.
Tumor growth was assessed by twice a week measurements of the shortest (width) and the longest (length) diameters of each tumor by a Vernier caliper and the antitumor activity was evaluated in terms of percent inhibition of tumor growth. Tumor volume (or tumor weight*) was calculated according to the following formula using caliper measurements: tumor volume or TV (mm^3)=[length (mm)×width (mm)^2]/2.
Tumor volume inhibition percent (% TVI) was calculated according to the equation: 100−[(mean tumor volume of treated group/mean tumor volume of control group)×100]. A P value≦0.05 was considered statistically significant.

[2] = system: MeWo human melanoma; test: Cytotoxicity assay (sulforhodamine B), MeWo; type: cell-based; settings: 24 h exposure, then 48 h drug-free
Description: (§1) The following cell lines were purchased from ATCC and cultured according to manufacturer's instructions: NCIH460 human lung carcinoma, MeWo human melanoma, MES-SA human uterine sarcoma and HCT116 human colorectal carcinoma. HT-29 human colon adenocarcinoma cells and A2780 human ovarian carcinoma, obtained from Istituto Nazionale Tumori (Milan, Italy), were grown in RPMI 1640 (GIBCO) containing 10% fetal bovine serum (GIBCO) and 50 μg/ml gentamycin sulfate.
(§2) To test the effects of ST2303 on growth, cells were seeded in 96-well tissue culture plates (Corning) at approximately 10% confluence and were allowed to attach and recover for at least 24 h. Varying concentrations of the compound were then added to each well. The plates were incubated for 24 h and then washed before incubating them for additional 48 h. The number of surviving cells was then determined by staining with sulforhodamine B as described by Skehan et al. (1990). ST2303 inhibitory concentration 50 (IC50)±SD on different cell lines, evaluated by “ALLFIT” computer program, are shown in Table 1.

[3] = system: bovine microvascular endothelial cells (BMEC); test: Cytotoxicity assay (sulforhodamine B), BMEC; type: cell-based; settings: Bos taurus, Endothelial cell, 24 h exposure, then 48 h drug-free
Description: (§3) Primary cultures of bovine microvascular endothelial cells (BMEC) were obtained from bovine adrenal glands as described by Folkman (Folkman J., Haudenschild C. C., Zetter B. R. Long-term culture of capillary endothelial cells. Proc. Natl. Acad. Sci. USA, 1979 October; 76(10): 5217-21). BMEC were maintained in DMEM supplemented with 20% fetal calf serum (FCS), 50 units/ml heparin (Sigma, St. Louis, Mo.), 50 μg/ml bovine brain extract, 100 units/ml gentamycin. HUVEC (Human umbilical vein endothelial cells) were obtained from BioWhittaker (Walkersville, Md.) and grown in EGM-2 (BioWhittaker). EA-hy 926 cell line, a HUVEC-adenocarcinoma immortalized cell hybrid, was obtained from the Dipartimento di Scienze Biomediche e Oncologia Umana (Universita di Bari, Italy), and cultured in DMEM supplemented with 10% serum and 50 μg/ml gentamycin sulfate.
(§4) To test the effects of ST2303 on growth, cells were seeded in 96-well tissue culture plates (Corning) at approximately 10% confluence and were allowed to attach and recover for at least 24 h. Varying concentrations of the compound were then added to each well. […] The number of surviving cells was then determined by staining with sulforhodamine B as described by Skehan et al. (1990). ST2303 inhibitory concentration 50 (IC50)±SD on different cell lines, evaluated by “ALLFIT” computer program, are shown in Table 1.

[4] = system: HT-29 human colon adenocarcinoma cells; test: Cytotoxicity assay (sulforhodamine B), HT-29; type: cell-based; settings: HT29, 24 h exposure, then 48 h drug-free
Description: as §1, §2

[5] = system: HCT116 human colorectal carcinoma; test: Cytotoxicity assay (sulforhodamine B), HCT116; type: cell-based; settings: HCT 116, 24 h exposure, then 48 h drug-free
Description: as §1, §2

[6] = system: EA-hy 926 cell line; test: Cytotoxicity assay (sulforhodamine B), EA-hy 926; type: cell-based; settings: Homo sapiens, EAHY.926, 24 h exposure, then 48 h drug-free
Description: as §3, §4

[7] = system: MES-SA human uterine sarcoma; test: Cytotoxicity assay (sulforhodamine B), MES-SA; type: cell-based; settings: 24 h exposure, then 48 h drug-free
Description: as §1, §2

[8] = system: tubulin; test: Tubulin polymerisation inhibition test (CytoDINAMIX Screen, turbidity at 340 nm); type: biochemical; settings: tubulin 3 mg/ml, 37° C.; mean of 3 independent determinations; read-out: IC50 ± SE, tubulin polymerisation
Description: The tubulin polymerisation test was performed by CytoDINAMIX Screen™. Turbidity from tubulin polimerisation was measured with a Victor2 from Wallac. HTS-tubulin was diluted to 3 mg/ml in buffer PEM [100 mM PIPES (pH 6.9), 1 mM EGTA and 1 mM MgCl2] containing 1 mM GTP (GPEM) plus 5% glycerol, and kept on ice. Aliquots of this solution was then placed at 37° C. in presence of taxol (3 μM) or colcemid (3 μM) or combretastatin (ST1986) or compounds to examinate, and absorbance was measured at 340 nm. The IC50 values were determined by non-linear regression analysis using “Prism GraphPad” software.
The value indicated in Table 3 is the mean of 3 independent determinations.

[9] = system: NCIH460 human lung carcinoma; test: Cytotoxicity assay (sulforhodamine B), NCI-H460; type: cell-based; settings: 24 h exposure, then 48 h drug-free
Description: as §1, §2

[10] = system: HUVEC (Human umbilical vein endothelial cells); test: Cytotoxicity assay (sulforhodamine B), HUVEC; type: cell-based; settings: 24 h exposure, then 48 h drug-free
Description: as §3, §4

[11] = system: A2780 human ovarian carcinoma; test: Cytotoxicity assay (sulforhodamine B), A2780; type: cell-based; settings: 24 h exposure, then 48 h drug-free
Description: as §1, §2

[12] = i.p. 50 mg/kg, qdx5/w/3wks, day 11 after cell injection
[13] = i.p. 50 mg/kg, qdx5/w/3wks, day 28 after cell injection

SMILES: COc1ccc(/C=C\c2cc(OC)c(OC)c(OC)c2)cc1OP(=O)(O)O [CA-4P, combretastatin A-4 P, reference compound]
- % BWL (body weight loss) ([1]; i.p. 50 mg/kg, qdx5/w/3wks): 3%
- mortality ([1]; i.p. 50 mg/kg, qdx5/w/3wks): 0/8
- % TVI (tumor volume inhibition) [1, 12]: 47** %
- % TVI (tumor volume inhibition) [1, 13]: 61*** %

SMILES: COc1ccc(/C(F)=C(/F)c2cc(OC)c(OC)c(OC)c2)cc1O [ST2303, (Z)-1,2-difluoro-1-(3,4,5 trimethoxyphenyl)-2-(3-hydroxy-4-methoxyphenyl)ethene]
- IC50 [2]: 3.6 ± 0.0003 nM
- IC50 [3]: 1 ± 0.5 nM
- IC50 [4]: > 200 nM
- IC50 [5]: 2.2 ± 0.05 nM
- IC50 [6]: 5 ± 0.5 nM
- IC50 [7]: < 1 nM
- IC50 [8]: 7700 ± 120 nM
- IC50 [9]: 3 ± 0.005 nM
- IC50 [10]: 1 ± 0.3 nM
- IC50 [11]: 3 ± 0.001 nM

SMILES: COc1ccc(/C(F)=C(/F)c2cc(OC)c(OC)c(OC)c2)cc1OP(=O)([O-])[O-].[Na+].[Na+] [ST2493, (Z)-1,2-difluoro-1-(3,4,5-trimethoxyphenyl)-2-(3-hydroxy-4-methoxyphenyl)ethene o-disodium phosphate]
- TVI compared to vehicle (in words) ([1]; both intraperitoneal and intravenous administration): significant TVI
- % BWL (body weight loss) ([1]; i.p. 50 mg/kg, qdx5/w/3wks): 8%
- mortality ([1]; i.p. 50 mg/kg, qdx5/w/3wks): 0/8
- % TVI (tumor volume inhibition) [1, 12]: 68** %
- % TVI (tumor volume inhibition) [1, 13]: 73*** %
- % BWL (body weight loss) ([1]; i.v. 25 mg/kg, q2dx6): 8%
- mortality ([1]; i.v. 25 mg/kg, q2dx6): 0/8
- % TVI (tumor volume inhibition) ([1]; i.v. 25 mg/kg, q2dx6, day 11 after cell injection): 63** %
- % TVI (tumor volume inhibition) ([1]; i.v. 25 mg/kg, q2dx6, day 28 after cell injection): 64*** %
- % BWL (body weight loss) ([1]; i.v. 50 mg/kg, q2dx6): 8%
- mortality ([1]; i.v. 50 mg/kg, q2dx6): 0/8
- % TVI (tumor volume inhibition) ([1]; i.v. 50 mg/kg, q2dx6, day 11 after cell injection): 73** %
- % TVI (tumor volume inhibition) ([1]; i.v. 50 mg/kg, q2dx6, day 28 after cell injection): 73** %
- TVI compared with the same dose of CA-4P (in words) ([1]; intraperitoneal, 50 mg/kg, p=0.0095 at day 11, p=0.0180 at day 28, Mann Whitney's test): significant difference
